Experimental findings from patent US12110293B2, “Substituted triazolo quinoxaline derivatives” (GRÜNENTHAL GMBH, priority 2018, dated 2024) are described below.

For the test, the target named is T1, glucocorticoid receptor (Homo sapiens, UniProt P04150).
T1 construct: expressed in transfected cells
T1 sequence (P04150 524-758 limits assumed): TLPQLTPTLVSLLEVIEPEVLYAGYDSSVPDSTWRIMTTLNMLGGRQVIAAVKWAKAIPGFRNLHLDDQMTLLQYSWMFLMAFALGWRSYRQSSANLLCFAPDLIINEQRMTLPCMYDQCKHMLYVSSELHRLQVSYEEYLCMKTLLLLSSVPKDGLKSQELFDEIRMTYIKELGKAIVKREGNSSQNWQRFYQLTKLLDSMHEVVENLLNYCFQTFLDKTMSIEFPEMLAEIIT
The test is described as follows: Agonistic mode of action on the glucocorticoid receptor (CHO-Gal4/GR luciferase reporter cell line). The class given is cell-based. The following applies: range class observed in the agonistic assay or the antagonistic assay (CHO-Gal4/GR reporter cells); table does not say which mode applies per example. In outline:
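CHO cells stably carrying GAL4 DBD–GR ligand-binding-domain fusion and GAL4-UAS firefly luciferase reporter, 5000 cells/well grown 24 h, then compounds added in Opti-MEM at 8 half-log concentrations from 10 μM to 0.003 μM (0.5% DMSO), quadruplicates. Agonist-induced luminescence read on FLIPR Tetra; EC50 calculated.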
On the technique in general: A reporter such as luciferase makes a cellular process visible.

The structures appear in SMILES notation.

`Cc1nnc2n1-c1c(cc(F)c(-c3cccc4c3cnn4C3CC3)c1F)NC2(C)C` [Example 243, 8-(1-Cyclopropyl-1H-indazol-4-yl)-7,9-difluoro-1,4,4-trimethyl-5H-[1,2,4]triazolo[4,3-a]quinoxaline] yielded an IC50 or EC50 (agonist or antagonist mode not specified) of 100 to 1000 nM.
In turn, `Cc1c(-c2cc(F)cc3c2ccn3S(C)(=O)=O)c(C(F)(F)F)cc2c1-n1c(C)nnc1C(C)(C)N2` [Example 83, 8-(6-Fluoro-1-methylsulfonyl-1H-indol-4-yl)-1,4,4,9-tetramethyl-7-(trifluoromethyl)-5H-[1,2,4]triazolo[4,3-a]quinoxaline] displayed an IC50 or EC50 (agonist or antagonist mode not specified) of 1000 to 15000 nM.
The same measure for `Cc1nnc2n1-c1c(cc(F)c(-c3cccc4c3cnn4C)c1C(F)F)NC2(C)C` [Example 294, 9-(Difluoro-methyl)-7-fluoro-1,4,4-trimethyl-8-(1-methyl-1H-indazol-4-yl)-5H-[1,2,4]triazolo[4,3-a]quinoxaline]: < 100 nM.
Under `Cc1cc2c(c(C)c1-c1cccc3c(C)c[nH]c13)-n1c(C)nnc1C(C)(C)N2` [Example 356, 1,4,4,7,9-Pentamethyl-8-(3-methyl-1H-indol-7-yl)-5H-[1,2,4]triazolo[4,3-a]quinoxaline] stands < 100 nM; under `Cc1nnc2n1-c1c(cc(F)c(-c3cccc4c(C#N)c[nH]c34)c1C(F)(F)F)NC2(C)C` [Example 89, 7-(7-fluoro-1,4,4-trimethyl-9-(trifluoromethyl)-4,5-dihydro-[1,2,4]triazolo[4,3-a]quinoxalin-8-yl)-1H-indole-3-carbonitrile], 100 to 1000 nM.
Turning to `COCCn1ccc2c(-c3c(C)cc4c(c3C)-n3c(C)nnc3C(C)(C)N4)cccc21` [Example 331, 8-[1-(2-Methoxy-ethyl)-1H-indol-4-yl]-1,4,4,7,9-pentamethyl-5H-[1,2,4]triazolo[4,3-a]quinoxaline], the IC50 or EC50 (agonist or antagonist mode not specified) was 1000 to 15000 nM.
Under `Cc1nnc2n1-c1c(cc(Cl)c(-c3cccc4c3cnn4C)c1F)NC2(C)C` [Example 285, 7-Chloro-9-fluoro-1,4,4-trimethyl-8-(1-methyl-1H-indazol-4-yl)-5H-[1,2,4]triazolo[4,3-a]quinoxaline] stands 1000 to 15000 nM; under `COCCn1ccc2c(-c3c(OC(F)F)cc4c(c3C)-n3c(C)nnc3C(C)(C)N4)cccc21` [Example 336, 7-(Difluoro-methoxy)-8-[1-(2-methoxy-ethyl)-1H-indol-4-yl]-1,4,4,9-tetramethyl-5H-[1,2,4]triazolo[4,3-a]quinoxaline], 1000 to 15000 nM.
Under `CCc1nnc2n1-c1c(cc(F)c(-c3cc(F)cc4c3ccn4CCOC)c1C)NC2(C)C` [Example 36, 1-ethyl-7-fluoro-8-(6-fluoro-1-(2-methoxyethyl)-1H-indol-4-yl)-4,4,9-trimethyl-4,5-dihydro-[1,2,4]triazolo[4,3-a]quinoxaline] stands 100 to 1000 nM.
Under `Cc1c(-c2cccc3c2ccn3S(C)(=O)=O)c(OC(F)(F)F)cc2c1-n1c(C)nnc1C(C)(C)N2` [Example 465, 1,4,4,9-Tetramethyl-8-(1-methylsulfonyl-1H-indol-4-yl)-7-(trifluoromethyloxy)-5H-[1,2,4]triazolo[4,3-a]quinoxaline] stands < 100 nM; under `COc1cc2c(c(C(F)(F)F)c1-c1cccc3c1ccn3C)-n1c(C)nnc1C(C)(C)N2` [Example 509, 7-Methoxy-1,4,4-trimethyl-8-(1-methyl-1H-indol-4-yl)-9-(trifluoromethyl)-5H-[1,2,4]triazolo[4,3-a]quinoxaline], 100 to 1000 nM.
For the molecule `COCCn1ccc2c(-c3c(C)cc4c(c3F)-n3c(C)nnc3C(C)(C)N4)cccc21` [Example 337, 9-Fluoro-8-[1-(2-methoxy-ethyl)-1H-indol-4-yl]-1,4,4,7-tetramethyl-5H-[1,2,4]triazolo[4,3-a]quinoxaline], the IC50 or EC50 (agonist or antagonist mode not specified) was in the range of 1000 to 15000 nM.
Under `Cc1nnc2n1-c1c(cc(F)c(-c3cccc4[nH]c(C(F)(F)F)cc34)c1F)NC2(C)C` [Example 225, 7,9-Difluoro-1,4,4-trimethyl-8-[2-(trifluoromethyl)-1H-indol-4-yl]-5H-[1,2,4]triazolo[4,3-a]quinoxaline] stands < 100 nM; under `COc1c(-c2cccc3c(C)n[nH]c23)c(F)cc2c1-n1c(C)nnc1C(C)(C)N2` [Example 381, 7-Fluoro-9-methoxy-1,4,4-trimethyl-8-(3-methyl-1H-indazol-7-yl)-5H-[1,2,4]triazolo[4,3-a]quinoxaline], 1000 to 15000 nM; under `CCc1nnc2n1-c1c(cc(F)c(-c3cccc4cc[nH]c34)c1F)NC2(C)C` [Example 11, 1-ethyl-7,9-difluoro-8-(1H-indol-7-yl)-4,4-dimethyl-4,5-dihydro-[1,2,4]triazolo[4,3-a]quinoxaline], 100 to 1000 nM.
Under `Cc1nnc2n1-c1c(cc(F)c(-c3cc(C#N)cc4[nH]ccc34)c1C(F)(F)F)NC2(C)C` [Example 479, 4-[7-Fluoro-1,4,4-trimethyl-9-(trifluoromethyl)-5H-[1,2,4]triazolo[4,3-a]quinoxalin-8-yl]-1H-indole-6-carbonitrile] stands 100 to 1000 nM.
`Cc1nnc2n1-c1c(cc(F)c(-c3cccc4nn(C)cc34)c1F)NC2(C)C` [Example 222, 7,9-Difluoro-1,4,4-trimethyl-8-(2-methyl-2H-indazol-4-yl)-5H-[1,2,4]triazolo[4,3-a]quinoxaline]: the IC50 or EC50 (agonist or antagonist mode not specified) is 1000 to 15000 nM.
The same measure for `Cc1cc2c(-c3c(F)cc4c(c3F)-n3c(C)nnc3C(C)(C)N4)cc(F)cc2[nH]1` [Example 5, 7,9-difluoro-8-(6-fluoro-2-methyl-1H-indol-4-yl)-1,4,4-trimethyl-4,5-dihydro-[1,2,4]triazolo[4,3-a]quinoxaline]: 100 to 1000 nM; for `COc1cc(-c2c(F)cc3c(c2C)-n2c(C)nnc2C(C)(C)N3)c2ccn(S(C)(=O)=O)c2c1` [Example 537, 7-Fluoro-8-(6-methoxy-1-methylsulfonyl-1H-indol-4-yl)-1,4,4,9-tetramethyl-5H-[1,2,4] triazolo[4,3-a]quinoxaline]: 100 to 1000 nM; for `CCc1nnc2n1-c1c(cc(F)c(-c3c(F)ccc4[nH]ccc34)c1C)NC2(C)C` [Example 244, 1-Ethyl-7-fluoro-8-(5-fluoro-1H-indol-4-yl)-4,4,9-trimethyl-5H-[1,2,4]triazolo[4,3-a]quinoxaline]: 1000 to 15000 nM.
The same measure for `Cc1nnc2n1-c1c(ccc(-c3cc(F)cc4c3ccn4S(C)(=O)=O)c1C(F)(F)F)NC2(C)C` [Example 499, 8-(6-Fluoro-1-methylsulfonyl-1H-indol-4-yl)-1,4,4-trimethyl-9-(trifluoromethyl)-5H-[1,2,4]triazolo[4,3-a]quinoxaline]: 100 to 1000 nM.
The same measure for `Cc1c(-c2cccc3c(C)c[nH]c23)c(Cl)cc2c1-n1c(C)nnc1C(C)(C)N2` [Example 358, 7-Chloro-1,4,4,9-tetramethyl-8-(3-methyl-1H-indol-7-yl)-5H-[1,2,4]triazolo[4,3-a]quinoxaline]: < 100 nM; for `Cc1cc2c(c(C)c1-c1cc(F)cc3c(C)c[nH]c13)-n1c(C)nnc1C(C)(C)N2` [Example 341, 8-(5-Fluoro-3-methyl-1H-indol-7-yl)-1,4,4,7,9-pentamethyl-5H-[1,2,4]triazolo[4,3-a]quinoxaline]: 100 to 1000 nM.
In the case of `Cc1nnc2n1-c1c(cc(F)c(-c3cc(Cl)cc4[nH]ccc34)c1F)NC2(C)C` [Example 511, 8-(6-Chloro-1H-indol-4-yl)-7,9-difluoro-l,4,4-trimethyl-5H-[1,2,4]triazolo[4,3-a]quinoxaline], the IC50 or EC50 (agonist or antagonist mode not specified) is < 100 nM.
Under `CCc1nnc2n1-c1c(cc(F)c(-c3cc(F)cc4c3cnn4S(C)(=O)=O)c1C)NC2(C)C` [Example 348, 1-Ethyl-7-fluoro-8-(6-fluoro-1-methylsulfonyl-1H-indazol-4-yl)-4,4,9-trimethyl-5H-[1,2,4]triazolo [4,3-a]quinoxaline] stands 1000 to 15000 nM; under `Cc1ccc(-c2c(F)cc3c(c2C(F)F)-n2c(C)nnc2C(C)(C)N3)c2ccn(S(C)(=O)=O)c12` [Example 512, 9-(Difluoro-methyl)-7-fluoro-1,4,4-trimethyl-8-(7-methyl-1-methylsulfonyl-1H-indol-4-yl)-5H-[1,2,4]triazolo[4,3-a]quinoxaline], 1000 to 15000 nM.
The same measure for `COc1c(-c2cc(F)cc3c2cnn3S(C)(=O)=O)c(F)cc2c1-n1c(C)nnc1C(C)(C)N2` [Example 339, 7-Fluoro-8-(6-fluoro-1-methylsulfonyl-1H-indazol-4-yl)-9-methoxy-1,4,4-trimethyl-5H-[1,2,4]triazolo[4,3-a]quinoxaline]: 100 to 1000 nM.
For the molecule `Cc1nnc2n1-c1c(cc(F)c(-c3cc(F)cc4c3cnn4CC(F)F)c1C(F)F)NC2(C)C` [Example 472, 8-[1-(2,2-Difluoro-ethyl)-6-fluoro-1H-indazol-4-yl]-9-(difluoro-methyl)-7-fluoro-1,4,4-trimethyl-5H-[1,2,4]triazolo[4,3-a]quinoxaline], the IC50 or EC50 (agonist or antagonist mode not specified) was < 100 nM.
The same measure for `Cc1nnc2n1-c1c(cc(F)c(-c3cc(F)cc4[nH]ccc34)c1F)NC2(C)C` [Example 1, 7,9-difluoro-8-(6-fluoro-1H-indol-4-yl)-1,4,4-trimethyl-4,5-dihydro-[1,2,4]triazolo[4,3-a]quinoxaline]: < 100 nM.
